Some results are limits rather than exact numbers.

The conditions of series [1]: background statement on known amythiamicins; cited from earlier work.
The test system of series [2] is Staphylococcus aureus MS 15009/pMS 98. The experiment in a line: MIC, standard serial dilution method. Type of series: cell-based. The note with it: Muller-Hinton agar medium, 37° C.
Series [3] deals with Staphylococcus aureus MS 15009/pMS 99. The experiment in a line: MIC, standard serial dilution method. The note with it: Muller-Hinton agar medium, 37° C. Type of series: cell-based.
The test system of series [4] is Klebsiella pneumonia PCI 602. The series can be described thus: MIC, standard serial dilution method. Format: cell-based. The note with it: Klebsiella pneumonia PCI 602 (Table 3); Muller-Hinton agar medium, 37° C.
Series [5] deals with Staphylococcus aureus 209P JC-1. The experiment in a line: MIC, standard serial dilution method. Type of series: cell-based. The note with it: Muller-Hinton agar medium, 37° C.
Series [6] has as its system Staphylococcus aureus M 133. The series can be described thus: MIC, standard serial dilution method. Type of series: cell-based. The note with it: Muller-Hinton agar medium, 37° C.
Series [7] has as its system Staphylococcus aureus M 126. The series can be described thus: MIC, standard serial dilution method. Format: cell-based. The note with it: Muller-Hinton agar medium, 37° C.
Series [8] relates to Staphylococcus aureus MS 15026. The series can be described thus: MIC, standard serial dilution method. The note with it: Muller-Hinton agar medium, 37° C. Type of series: cell-based.
Series [9] has as its system Staphylococcus aureus MS 15027. The experiment in a line: MIC, standard serial dilution method. Format: cell-based. The note with it: Muller-Hinton agar medium, 37° C.
The test system of series [10] is Staphylococcus epidermidis ATCC 14990. The experiment in a line: MIC, standard serial dilution method. Format: cell-based. The note with it: Muller-Hinton agar medium, 37° C.
Series [11] deals with Micrococcus luteus ATCC 9341. The experiment in a line: MIC, standard serial dilution method. Type of series: cell-based. The note with it: Muller-Hinton agar medium, 37° C.
Series [12] deals with Enterobacterium faecalis W-73. The series can be described thus: MIC, standard serial dilution method. Format: cell-based. The note with it: Muller-Hinton agar medium, 37° C.
For series [13], the system named is Escherichia coli NIHJ JC-2. The experiment in a line: MIC, standard serial dilution method. Format: cell-based. The note with it: Muller-Hinton agar medium, 37° C.
The subject of series [14] is Streptococcus pneumoniae IP 692. The series can be described thus: MIC, standard serial dilution method. Type of series: cell-based. The note with it: Muller-Hinton agar medium, 37° C.
Series [15] deals with Streptococcus pneumoniae Type 1. The series can be described thus: MIC, standard serial dilution method. Type of series: cell-based. The note with it: Muller-Hinton agar medium, 37° C.
For series [16], the system named is Streptococcus pyogenes Cook. The series can be described thus: MIC, standard serial dilution method. Format: cell-based. The note with it: Muller-Hinton agar medium, 37° C.
Series [17] concerns Branhamella catarrhalis W-0500. The experiment in a line: MIC, standard serial dilution method. The note with it: Muller-Hinton agar medium, 37° C. Format: cell-based.
Series [18] deals with Branhamella catarrhalis W-0506. The series can be described thus: MIC, standard serial dilution method. Type of series: cell-based. The note with it: Muller-Hinton agar medium, 37° C.
For series [19], the system named is Haemophilus influenzae 9334. The series can be described thus: MIC, standard serial dilution method. Type of series: cell-based. The note with it: Muller-Hinton agar medium, 37° C.
The subject of series [20] is Haemophilus influenzae Type b. The experiment in a line: MIC, standard serial dilution method. Format: cell-based. The note with it: Muller-Hinton agar medium, 37° C.

On to `CNC(=O)CC1NC(=O)c2csc(n2)-c2ccc(-c3nc(C(=O)OC)cs3)nc2-c2csc(n2)-c2csc(n2)C(C(C)C)NC(=O)CNC(=O)c2csc(n2)C(C(C)C)NC(=O)c2nc1sc2C` (centres unmarked) [Amythiamicin D], for which, in [1], the solubility in water result was “hardly soluble in water”.

Take `CCCCNC(=O)c1csc(-c2ccc3c(n2)-c2csc(n2)-c2csc(n2)C(C(C)C)NC(=O)CNC(=O)c2csc(n2)C(C(C)C)NC(=O)c2nc(sc2C)C(CC(=O)NC)NC(=O)c2csc-3n2)n1` (centres unmarked) [Compound No. 8]: the “Minimum growth inhibitory concentrations (MIC.)” value in series [2], in [3], in series [4], in series [5], in series [6] and in series [7] was > 100 µg/mL each time. Besides, the “Minimum growth inhibitory concentrations (MIC.)” value in [8] was > 100 µg/mL; in [9], > 100 µg/mL; in series [10], > 100 µg/mL; in series [11], 1.56 µg/mL; in series [12], > 100 µg/mL; in [13] it was > 100 µg/mL. Further, the “Minimum growth inhibitory concentrations (MIC.)” value in [14], in [15], in series [16], in series [17], in series [18] and in series [19] was > 100 µg/mL in each case. Also, in [20], the “Minimum growth inhibitory concentrations (MIC.)” value was > 100 µg/mL.

Turning to `CNC(=O)CC1NC(=O)c2csc(n2)-c2ccc(-c3nc(C(=O)NCCCO)cs3)nc2-c2csc(n2)-c2csc(n2)C(C(C)C)NC(=O)CNC(=O)c2csc(n2)C(C(C)C)NC(=O)c2nc1sc2C` (centres unmarked) [Compound No. 9], the “Minimum growth inhibitory concentrations (MIC.)” value in series [2] is 0.39 µg/mL; in [3] it was 0.39 µg/mL; in series [4], > 100 µg/mL; in series [5], 0.39 µg/mL; in series [6], 0.39 µg/mL; in series [7], 0.39 µg/mL. In addition, the “Minimum growth inhibitory concentrations (MIC.)” value in [8] is 0.39 µg/mL; in [9] it was 0.39 µg/mL; in series [10], 0.78 µg/mL; in series [11], 0.20 µg/mL; in [12], 0.39 µg/mL; in [13] it was > 100 µg/mL. Besides, the “Minimum growth inhibitory concentrations (MIC.)” value in series [14], in [15], in [16], in series [17], in [18] and in series [19] was > 100 µg/mL in each case. For the same molecule, the “Minimum growth inhibitory concentrations (MIC.)” value in [20] is > 100 µg/mL.

On to `CNC(=O)CC1NC(=O)c2csc(n2)-c2ccc(-c3nc(C(=O)N[C@@H](CCCNC(=N)N)C(=O)O)cs3)nc2-c2csc(n2)-c2csc(n2)C(C(C)C)NC(=O)CNC(=O)c2csc(n2)C(C(C)C)NC(=O)c2nc1sc2C` (some centres unmarked) [Compound No. 10], for which the “Minimum growth inhibitory concentrations (MIC.)” value in [2], in series [3], in [4], in [5], in series [6] and in [7] was > 100 µg/mL each time. The “Minimum growth inhibitory concentrations (MIC.)” value in series [8], in series [9], in series [10], in series [11], in series [12] and in series [13] was > 100 µg/mL each time. For the same molecule, the “Minimum growth inhibitory concentrations (MIC.)” value in series [14], in series [15], in series [16], in series [17], in series [18] and in series [19] was > 100 µg/mL in each case. The “Minimum growth inhibitory concentrations (MIC.)” value in series [20] was > 100 µg/mL.

`CNC(=O)CC1NC(=O)c2csc(n2)-c2ccc(-c3nc(C(=O)N[C@H](CO)CCCNC(=N)N)cs3)nc2-c2csc(n2)-c2csc(n2)C(C(C)C)NC(=O)CNC(=O)c2csc(n2)C(C(C)C)NC(=O)c2nc1sc2C` (some centres unmarked) [Compound No. 11]: the “Minimum growth inhibitory concentrations (MIC.)” value in series [2] was > 100 µg/mL; in series [3], > 100 µg/mL; in [4], > 100 µg/mL; in [5], 6.25 µg/mL; in series [6] it was > 100 µg/mL; in series [7], > 100 µg/mL. Also, the “Minimum growth inhibitory concentrations (MIC.)” value in [8] is > 100 µg/mL; in series [9], > 100 µg/mL; in series [10], > 100 µg/mL; in series [11], 100 µg/mL; in [12], > 100 µg/mL; in series [13], > 100 µg/mL. For the same molecule, the “Minimum growth inhibitory concentrations (MIC.)” value in series [14], in series [15], in series [16], in [17], in series [18] and in [19] was > 100 µg/mL in each case. Also, the “Minimum growth inhibitory concentrations (MIC.)” value in series [20] is > 100 µg/mL.

Source of the values: US6043217A, “Amide derivative of amythiamicin” (Zaidan Hojin Biseibutsu Kagaku Kenyu Kai, priority 1996, dated 2000).
